The values that follow come from US20220304926A1, “PHARMACEUTICAL COMPOSITION COMPRISING A COLLOIDAL DISPERSION AND METHODS AND USES THEREOF” (PREBONA AB, priority 2019, published 2022).

A word on the inhibition: it is the drop in the measured response relative to a control, in per cent.

Data set [1] has as its system Huh7^A2HCV^Rep and Huh7^A2 cell lines. In words: MTT tetrazolium proliferation / cellular toxicity assay. The format is cell-based. The protocol:
Cells were seeded in flat bottom 96-well plates (Nuncleon™ Δ Surface, Denmark) at a density of 5 000 cells/well in 100 μL of culture medium without antibiotics (G418, puromycin and blasticidin). […] The final concentration of DMSO never exceeded 0.2%. AGSOL 1000-5-5, diluted in culture medium, was added at several concentrations: 0.01 ng/mL, 0.1 ng/mL, 1 ng/mL, 10 ng/mL, 0.1 μg/mL, 1 μg/mL, 10 μg/mL and 100 μg/mL. AGSOL 100-5-5 was added as described above, excluding the concentration 100 μg/mL. Medium without added cells and cells without any inhibitors constituted negative controls. […]
The 3-[4,5-dimethyltiazol-2-yl]-2,5-diphenyl tetrazolium bromide is cleaved by mitochondrial dehydrogenases of viable cells, leading to purple formazan in the form of insoluble crystals in aqueous solutions but dissolved in acidified isopropanol. The resulting purple solution is spectrophotometrically measured. […]
At time-points 24, 48, 72 and 96 hours post-addition of inhibitors, culture plates were removed from incubator into laminar flow hood. […] The background absorbance of multi-well plates was measured at 690 nm and was subtracted from the 570 nm values. Results were presented as the percentage of viability per condition (inhibitor/concentration) and the absorbance (A570 nm−A690 nm) per time-point for each inhibitor and per cell line. […]

The subject of data set [2] is HCV subgenomic RNA replicon of genotype 1b in Huh7^A2HCV^Rep cells. The data set can be described thus: Luciferase activity assay, HCV replicon in vitro replication. Format: cell-based. To be noted: Hepatitis C virus, 500 nM. From the text:
A hepatoma cell line (Huh7-Lunet) designated Lunet-HlaA2-luc/neoET (Huh7^A2HCV^Rep) and Lunet-HlaA2 (Huh7^A2) were kindly provided by Dr. Volker Lohmann (UniversitätsKlinikum Heidelberg, Molekulare Virologie). The Lunet-HlaA2-luc/neoET expressed ectopically HLA-A2 and a selectable HCV subgenomic RNA replicon of genotype 1b harboring replication-enhancing mutations in NS3 and NS4 (Con1-ET). The replicon also expresses the selectable marker neomycin phosphotransferase, which inactivates the cytotoxic drug G418. The expression of non-structural proteins was driven by the encephalomyocarditis virus IRES (Robinson, M., Yang, H., Peng B. et al. 2010. Antimicrobial Agents and Chemotherapy. 54(8):3099-3106; Pasetto, A., Frelin, L. et al. 2012. J immunol. 189:4510-4519). The replicon cells expressed the firefly luciferase gene fused to the selectable marker by ubiquitin. As control, the parenteral cell line, designated Lunet-HlaA2, was used.
Cells were seeded in flat bottom 96-well plates (Nuncleon™ Δ Surface, Denmark) at a density of 5 000 cells/well in 100 μL of culture medium without antibiotics (G418, puromycin and blasticidin). […] The final concentration of DMSO never exceeded 0.2%. AGSOL 1000-5-5, diluted in culture medium, was added at several concentrations: 0.01 ng/mL, 0.1 ng/mL, 1 ng/mL, 10 ng/mL, 0.1 μg/mL, 1 μg/mL, 10 μg/mL and 100 μg/mL. AGSOL 100-5-5 was added as described above, excluding the concentration 100 μg/mL. Medium without added cells and cells without any inhibitors constituted negative controls. Each concentration of drug was tested in 5 unique wells and the same protocol was carried out for Huh7^A2HCV^Rep and Huh7^A2 cell lines. Inhibitors were refreshed daily. The experimental assays were performed three times with similar results.
The Lunet-HlaA2 (Huh7^A2) cell line was only used as negative control in this assay. The firefly luciferase gene expressed by the replicon cells catalyses the mono-oxygenation of beetle luciferin according to the reaction described in the following reaction scheme:
At time-points 24, 48, 72 and 96 hours post-addition of inhibitors, culture plates were removed from incubator into laminar flow hood and an equal volume of Luciferase assay reagent to that of the culture medium in each well was added. Three minutes were allowed for complete cell lysis, and subsequently the luminescence was measured. Absorbance and luminescence were read by Infinite 200 PRO reader (Tecan Group Ltd, Maennedorf, Switzerland).
The HCV in vitro replication was quantified by measuring the reporter gene expression. The Huh7^A2HCV^Rep cell line expresses both the HCV replicon and the firefly luciferase gene. The measurement of luciferase correlates with the HCV replication activity.
A general note: In antiviral work, replicon cells carry a viral genome segment that copies itself.

For the compound `CC(C)(C)NC(=O)N[C@H](C(=O)N1C[C@H]2[C@@H]([C@H]1C(=O)NC(CC1CCC1)C(=O)C(N)=O)C2(C)C)C(C)(C)C` (stereo partly drawn) [Boceprevir], the “cellular viability compared to cells grown without inhibitor” value in data set [1] (Boceprevir 100-500 nM, throughout the experiments (24-96 hpa), both cell lines) is given as no less than 75%. The “cellular toxicity by kinetic analysis of absorbance values” in data set [1] (Boceprevir, 24, 48, 72 and 96 hours post-addition) is listed as “did not cause any markedly cellular toxicity”. Also, the inhibition at 0.5 µM in data set [2] (24 hpa) was roughly 85%; in data set [2] (48 hpa), roughly 90%; in data set [2] (72 hpa), roughly 90%; in data set [2] (96 hpa) it was roughly 90%.
